# From PubChem BioAssay (NCI)
#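 96-well plates; 48 h exposure; 5 concentrations. Endpoints by linear interpolation between flanking doses. Not reached: highest tested concentration assigned. Definition used: TGI = concentration required for complete inhibition of growth.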
# Columns and labels:
# Test in all cases: growth of human tumour cells (NCI), 48 h
# A549 NSCLC = system: A549 NSCLC
# CCRF-CEM leukemia = system: CCRF-CEM leukemia
# SK-MEL-5 melanoma = system: SK-MEL-5 melanoma
# SN12C renal = system: SN12C renal
# SW-620 colon = system: SW-620 colon
# TK-10 renal = system: TK-10 renal
# MDA-MB-231 breast = system: MDA-MB-231 breast
# 786-0 renal = system: 786-0 renal
# A498 renal = system: A498 renal
# T-47D breast = system: T-47D breast
Structure (SMILES),TGI (A549 NSCLC) [µM],TGI (CCRF-CEM leukemia) [µM],TGI (SK-MEL-5 melanoma) [µM],TGI (SN12C renal) [µM],TGI (SW-620 colon) [µM],TGI (TK-10 renal) [µM],TGI (MDA-MB-231 breast) [µM],TGI (786-0 renal) [µM],TGI (A498 renal) [µM],TGI (T-47D breast) [µM]
COc1cc(CNc2nc3c(NC(C)=O)cc(C(F)(F)F)cc3nc2-c2ccccc2)cc(OC)c1OC,> 100,> 100,> 100,> 100,> 100,> 100,–,–,–,–
CCN(CCCl)c1cc(CN(C)C)cc(NC(=O)c2ccc(C(=O)Nc3cccc(N(CCCl)NN)c3)cc2)c1,2.52,0.115,0.174,1.16,–,0.618,0.69,–,–,–
CN(Cc1ccccc1)C(=S)S,> 100,49.2,> 100,> 100,> 100,–,> 100,40.7,> 100,> 100
CCOC(=O)CCC(C(=O)OCC)n1nnc2cc(Nc3c(C)[n+]([O-])c4cc(Cl)ccc4[n+]3[O-])ccc21 (stereo not drawn),> 100,> 100,> 100,> 100,> 100,> 100,–,> 100,> 100,> 100
NCC1OC(OC2C(N)CC(N)C(O)C2OC2OC(CO)C(O)C2O)C(N)C(O)C1O (stereo not drawn),> 100,> 100,> 100,> 100,> 100,> 100,> 100,> 100,> 100,> 100
N=C(N)c1ccc(N=Nc2c(O)c(C(=O)Nc3ccccc3)cc3ccccc23)cc1,> 100,5.92,> 49.6,54.5,> 100,> 68,22.4,30.2,> 100,38.2
CC1CC[C@@]2(OC1)OC1C[C@H]3[C@@H]4CC=C5C[C@@H](OC6OC(CO)C(OC7OC(CO)C(O)C(O)C7O)C(O)C6OC6OC(C)C(O)C(O)C6O)CC[C@]5(C)[C@H]4CC[C@]3(C)C1[C@@H]2C (stereo partly drawn),2.15,1.48,0.977,1.52,1.51,3.73,0.918,0.88,1.32,1.21
CSC1=C(C)C(/C=N/Nc2ccc([N+](=O)[O-])cc2)=C(C)N(c2ccccc2)S1(=O)=O,> 100,> 100,> 100,> 100,> 100,> 100,> 100,> 100,> 100,> 100
O=c1c2ccccc2n2nnc3ccc(NCCNCCO)c1c32,3.5,14.9,4.37,13.1,6.44,9.4,8.18,11.5,5.52,29.1
COC(=O)c1sc2c(Cl)c(Cl)sc2c1Cl,> 100,> 100,> 100,> 100,> 100,82,> 100,> 100,> 100,> 100
C/C(=C\C(=O)O)C(=O)N(C)c1ccccc1I,> 100,> 100,> 100,> 100,> 100,–,> 100,> 100,> 100,> 100
COC(=O)[C@]1(c2cc3ccccc3[nH]2)CC2CNC1C1OC(C)(C)OC21 (stereo partly drawn),> 100,> 100,> 100,> 100,> 100,> 100,> 100,> 100,–,> 100
CN(CC(=O)O)c1ncc2c(n1)-c1ccccc1CC2,> 100,> 100,> 100,> 100,> 100,> 100,> 100,> 100,> 100,–
CCOC(=O)NC(Nc1ccc(C(=O)O)cc1)(C(F)(F)F)C(F)(F)F,> 100,> 100,> 100,> 100,> 100,> 100,> 100,> 100,> 100,> 100
Cc1c(-c2ccccc2)oc(=O)c2ccccc12,> 100,48.2,33.8,38.1,–,60.7,36.5,51.2,–,75.7
C=C(C)C1CCC2(C)C1CCC1(C)C2CCC2C3(C)C4OC(OC4=O)C(C)(C)C3CCC21C (stereo not drawn),> 100,> 100,> 100,> 100,> 100,> 100,> 100,> 100,> 100,> 100
Cc1cc(C)c(C2=NO[C@@H]3[C@H]2C(=O)C=C2N(Cc4ccccc4)CCO[C@@]23O)c(C)c1,> 100,> 100,> 100,> 100,> 100,–,–,–,> 100,–
COc1cc(C2C3=C(NC(=O)C2C#N)c2ccc4ccccc4c2OCC3)cc(OC)c1OC (stereo not drawn),> 100,> 100,> 100,38.9,> 100,> 100,–,> 100,44,62.5
CN1CCN(Cc2ccc(C(=S)Nc3ccccc3)s2)CC1,> 100,> 100,34.1,–,> 100,–,–,> 100,> 100,> 100
C[C@]12CC[C@H]3[C@@H](CCC4=C/C(=N/OCCN5CCCCC5)CC[C@@]43C)[C@@H]1CC[C@@H]2O,34.5,26.9,26.4,38.2,32.7,35,50.6,> 100,–,> 100
Cn1c(COC(=O)NC2CCCCC2)c(COC(=O)NC2CCCCC2)c2ccc3ccccc3c21,> 100,> 100,> 100,–,> 100,> 100,> 100,> 100,32,> 100
O=c1[nH]c(NCCCCCO)nc2nc[nH]c12,–,> 100,> 100,> 100,> 100,> 100,> 100,> 100,> 100,> 100
N#CC(c1cc(Cl)ncn1)c1nc2cc(C(F)(F)F)ccc2s1 (stereo not drawn),> 100,–,26.2,> 100,17.8,> 100,33.9,13.4,56.2,> 100
